Laboratory results reported in patent US20210315887A1, “METHODS OF ADMINISTERING THERAPY” (GALAPAGOS NV, priority 2018, published 2021).
Entries after “also recorded” stand apart in the source; their conditions may differ. Read-outs that look alike come from different tables or passages of the source.

Experiment: Phase I open-label drug-drug interaction study: single-dose plasma pharmacokinetics of compound 1 before and after repeat doses of rifampicin
Type: in vivo, human
Conditions: for Mean maximal compound 1 plasma concentration: from mean concentration-time profile; for Cmax / AUC(0-t): po, 600 mg; for Cmax: healthy male subjects; for concentration at 24 h: read-out: C24h
Description: A phase I, open-label, non-randomized, drug-drug interaction study in healthy male subjects is done to evaluate the impact of repeat doses of rifampicin, on the single-dose pharmacokinetics (PK) of compound 1 as well as to evaluate the safety and tolerability of a single dose of compound 1 administered before or after oral doses of rifampicin.
Eighteen healthy male subjects received a single oral dose of 600 mg compound 1 on Day 1. From Days 2 to 11, 600 mg rifampicin was administered once daily (q.d.) to all subjects for 10 consecutive days. On Day 12, subjects received a single oral dose of 600 mg of compound 1 (see Table 1). A follow-up visit is conducted between days 15 and 18.
On days 1, 2, 12, 13 (i.e. 1, 2, 3, 4, 5, 6, 7, 8, 12 and 24 hours post compound 1 administration on day 1 and day 12) and at the follow-up visit, blood samples for PK assessment of compound 1 are taken. Blood samples of 2 mL for the determination of compound 1 levels in plasma are collected by venipuncture (or indwelling catheter) in the arm, into vacuum tubes containing lithium heparin and are immediately chilled (ice bath).
Within 30 min after blood collection, the plasma is separated by centrifugation at 4° C. for 10 min at circa 1,500 g and transferred into 2 polypropylene tubes with at least 400 μL of plasma in the first aliquot and the remaining volume in the second aliquot. After appropriate labeling, the plasma samples are stored in the clinical center at −20° C.±10° C. within 2 h following centrifugation and are protected from direct sunlight.
Plasma concentrations were measured using validated liquid chromatography with tandem mass (LC/MS-MS) spectrometry methods with a limit of quantification of 1.00 ng/mL for compound 1, 20.0 mg/mL for cholesterol and 5.00 ng/mL for 4-β-hydroxycholesterol. Non-compartmental PK calculations are performed using Phoenix WinNonlin® (version 6.4).
The following parameters are determined for compound 1 from individual concentration-time profiles in plasma: • Cmax: maximum observed plasma concentration • tmax: time of occurrence of Cmax • AUC0-t: area under the plasma concentration-time curve from time zero till the time corresponding with the last observed quantifiable concentration, calculated by the linear up-logarithmic down trapezoidal rule • AUC0-24h: area under the plasma concentration-time curve from time zero till 24 h post-dose, calculated by the linear up-logarithmic down trapezoidal rule • C24h: plasma concentration observed at 24 h post-dose
Plasma concentrations and PK parameters of compound 1 are listed by day (Day 1: compound 1 before multiple rifampin doses; Day 12: compound 1 after multiple rifampin doses) for each subject. Descriptive statistics are calculated by day for the plasma concentration and PK parameters. Mean (±SE) concentration-time profiles are generated by day.
A mixed-effects model with day as fixed effect and subject as random effect is performed on the following natural log (ln)-transformed PK parameters of compound 1: Cmax, C24h, AUC0-t, and AUC0-24h. […] The 90% confidence interval (CI) of the point estimate is calculated using the mean square error of the analysis of variance.
As tmax is a discrete variable dependent on selected blood sampling times, day effect was assessed using a non-parametric test (Wilcoxon's signed-rank test).

[1] = point estimate of least-squares geometric means ratio, Day 12 relative to Day 1
[2] = rifampin 600 mg q.d. for 10 days, Day 12 vs Day 1

- Time post-dose at which mean maximal concentration is attained (Day 1, single 600 mg oral dose): 2 h
- Mean maximal compound 1 plasma concentration (Day 1, single 600 mg oral dose): 7,870 ng/mL
- Time post-dose at which mean maximal concentration is attained (Day 12, after multiple rifampin doses): 2 h
- Mean maximal compound 1 plasma concentration (Day 12, single 600 mg oral dose after rifampin 600 mg q.d. 10 days): 1,180 ng/mL
- Impact of multiple rifampin intake on compound 1 clearance (Day 12 compared with Day 1): no impact
- Impact of multiple rifampin intake on apparent rate of elimination of compound 1 (Day 12 compared with Day 1, visual inspection of profiles): no impact
- Decrease of AUC0-24h by multiple rifampin intake (Day 12 vs Day 1): 89.2%
- Decrease of Cmax by multiple rifampin intake (Day 12 vs Day 1): 83.2%
- Bioavailability of compound 1 after multiple rifampin intake (as shown by point estimates, Day 12 vs Day 1): markedly lower
- Elimination of compound 1 (shape of log-linear mean concentration-time profile) (before and after multiple rifampin intake): biphasic
- Cmax (male, human, plasma, single oral 600 mg compound 1, after multiple rifampin doses 600 mg q.d. 10 days (Day 12), N = 18, arithmetic mean): 1440 ng/mL
- Cmax (male, human, plasma, single oral 600 mg compound 1, before multiple rifampin doses (Day 1), N = 18, arithmetic mean): 8660 ng/mL
- AUC(0-t) (male, human, plasma, single oral 600 mg, after multiple rifampin doses (Day 12), N = 17, arithmetic mean, read-out: AUC0-24h): 3750 ng·h/mL
- AUC(0-t) (male, human, plasma, single oral 600 mg, after multiple rifampin doses (Day 12), N = 18, arithmetic mean, read-out: AUC0-t): 3570 ng·h/mL
- AUC(0-t) (male, human, plasma, single oral 600 mg, before multiple rifampin doses (Day 1), N = 18, arithmetic mean, read-out: AUC0-24h): 36300 ng·h/mL
- AUC(0-t) (male, human, plasma, single oral 600 mg, before multiple rifampin doses (Day 1), N = 18, arithmetic mean, read-out: AUC0-t): 36300 ng·h/mL
- concentration at 24 h (male, human, plasma, single oral 600 mg, after multiple rifampin doses (Day 12), N = 18, arithmetic mean): 1.69 ng/mL
- concentration at 24 h (male, human, plasma, single oral 600 mg, before multiple rifampin doses (Day 1), N = 18, arithmetic mean): 83.4 ng/mL
- Tmax (male, human, plasma, single oral 600 mg, before multiple rifampin doses (Day 1), N = 18, median): 2 h
- AUC0-24h Comparison (PE %) [1]: 10.75%
- AUC0-t Comparison (PE %) [1]: 10.24%
- C24h Comparison (PE %) [1]: 2.48%
- Cmax Comparison (PE %) [1]: 16.78%
- Decrease of AUC0-24h by multiple rifampin intake [2]: 9.3 fold
- Decrease of Cmax by multiple rifampin intake [2]: 6.0 fold
Compound: CCc1nc2c(C)cc(N3CCN(CC(=O)N4CC(O)C4)CC3)cn2c1N(C)c1nc(-c2ccc(F)cc2)c(C#N)s1 [Compound 1]
- Day effect (rifampin) on tmax (statistical analysis Day 12 vs Day 1): no significant effect; also recorded: no significant impact
